Activity calls are given as the source filed them.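 How the source made its calls: active means compounds giving half or more protection of infected cells from virus-caused growth loss, again on retest; inactive means the rest.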
Test system: CEM cells HIV-1 protection, formazan growth assay
Test: NCI AIDS Antiviral Assay
Conditions: for IC50: measured here: growth of uninfected CEM cells
Outline: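 Steps: treat uninfected and HIV-1-infected human CEM cells at five drug levels; quantify growth by soluble formazan; retest any compound reaching 50% protection; classify actives from the retest.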

Compound	EC50 [µM]	IC50 [µM]	outcome
COC(=O)Cc1cc(O)c(C/C=C(\C)CC/C=C(\C)C(O)C(=O)C=C(C)C)cc1O (stereo not given)	> 15.8	9.33	
CC(C)=CC(=O)CC(=O)C(=O)NCCNC(=O)C(=O)CC(=O)C=C(C)C	> 2.09	> 2.09	
O=C1c2scc(-c3ccc(Cl)cc3)c2-n2cccc21	> 200	> 200	
COc1ccc2c(c1)CCc1c-2[nH]c2ccc(OC)cc12	> 200	> 200	
Oc1c(NCn2nc(CCCCCCCCc3nn(CNc4ccc5ccccc5c4O)c(=S)o3)oc2=S)ccc2ccccc12	> 200	35.5	
CCOC(=O)c1cc2c(OCc3ccccc3)c(OC)cc3c2c(n1)N(c1ccc(OC)cc1)C(C)C3 (stereo not given)	> 10.5	> 10.5	
CC1=CC(C)(C)NC(=S)N1c1ccc(N(C)C)cc1			inactive
Cn1c2ccccc2c2nnc(SCCN3CCOCC3)nc21	> 200	> 200	
O=C(/C=C/c1ccccc1)c1ccc(Sc2ccccc2)cc1	> 2	0.107	
Cc1c2ccccc2nc(CS(=O)c2ccccc2)[n+]1[O-] (stereo not given)	> 200	186	
O=C(/C(N=Nc1ccccc1)=C(\O)c1ccccc1)c1ccccc1	> 21.9	> 21.9	
Cc1ccc(Nc2nc(C)c(C(=O)C/C(=N/NC(N)=S)C(=O)Nc3cc(Cl)cc(Cl)c3)s2)cc1	> 200	178	
O=C1NCCS(=O)(=O)N[C@@H](CC2=CC=CCC2)C(=O)N2CCCC12 (stereo not given in full)	> 708	> 708	
NC(=O)c1nc2ccccc2nc1Nc1ccc(Cl)cc1Cl	> 1.58	> 1.58	
CCOC(=O)C(OCC1CC=CCC1)Sc1ccccc1 (stereo not given)	> 23.4	> 23.4	
Fc1ccc(NC(=S)N/N=C\c2c(Cl)cccc2Cl)cc1	> 275	> 275	

Compound	EC50 [µM]	IC50 [µM]	outcome
CN(C)CC[N+]1=Nc2cccc3cccc(c23)N1			inactive
CCc1ccccc1N=NC(=O)NNc1ccccc1CC	> 200	70.8	
c1ccc2c(c1)CC1c3[nH]c4ccccc4c3CCN21 (stereo not given)	> 200	55	
N#C/C(=C\NC(=S)Nc1ccc(S(N)(=O)=O)cc1)C(=O)c1ccc2ccccc2c1	> 200	155	
Nc1ccc2ccccc2c1N=Nc1ccc(/C=C/c2ccc(N=Nc3c(N)ccc4ccccc34)cc2S(=O)(=O)O)c(S(=O)(=O)O)c1	63.1	115	
Cc1cccc(C(C)C)c1NC(=O)C(=O)CC(=O)c1c(C)n([O-])c2ccccc2[n+]1=O	> 85.1	17	
CC(C)(C)c1cc(/C=C\C(=O)c2ccc([N+](=O)[O-])cc2)cc(C(C)(C)C)c1O	> 10	> 10	
O/N=C/c1cc(I)cc(I)c1O	> 66.1	33.9	
COC(=O)/C=C1/C(COC(c2ccccc2)(c2ccccc2)c2ccccc2)OC(n2ccc(=O)[nH]c2=O)C1O[Si](C)(C)C(C)(C)C (stereo not given)	> 200	10.7	
COc1ccc2nc(/C(N)=C\C#N)ccc2c1	> 200	41.7	
c1scc2c1COCCOCCOCCOCc1cscc1COCCOCCOCCOC2	> 347	> 347	
c1ccc(C2=NC3OC2c2ccccc23)cc1 (stereo not given)	> 200	> 200	
COc1ccc(O)c(/C(C)=N/NC(=S)N(C)C)c1	> 200	10.7	
O=C1C2=C(/C=C/c3ccccc3)OCCC2=NN1c1ccccc1	> 42.7	7.59	
NC(Cc1ccc(OCc2ccccc2)cn1)C(=O)O (stereo not given)	> 200	> 200	

Reference: PubChem BioAssay AID179 (DTP/NCI, 2004)
